One data set deals with wild-type hepatocytes. In words: Protection of wild-type hepatocytes from acetaminophen toxic injury by siRNA for MCJ. The data set is classed as cell-based.
Another data set concerns wild-type mice. The data set can be described thus: Acetaminophen (APAP) mouse model of drug-induced liver injury: liver histology and serum ALT. The data set is classed as in vivo. As to the method:
Alanine aminotransferase (ALT) aspartate aminotransferase (AST) and bilirubin were determined in serum samples using the Selectra Junior SpinLab 100 analyzer (Vital Scientific) and the SpinReact reagents according to manufacturer's protocols.
Paraffin-embedded liver samples were sectioned, dewaxed, and hydrated. Immunohistochemistry (IHC) was performed using an anti-MCJ antibody and nuclei were counter-stained with hematoxylin. Quantification of staining area of each sample was analyzed using the Frida software and represented as the % of the stained area relative to the total area (power field). Ten fields per sample were pictured and analyzed. For liver histology, liver sections from paraffin-embedded tissue were stained with hematoxylin and eoxin (H&E staining). Frida software was used for quantification.
(§1) siMCJ oligos (double strand RNA oligos, see for example, SEQ ID NO: 22) containing the designed sequence were synthesized for in vivo studies (Ambion invivo siRNA). As a delivery system Invivofectamine 3.0 (Life Technology) was used because it is claimed to obtain high efficiency of in vivo delivery of siRNA into hepatocytes. Following the recommendation of the manufacturer, 1.7 mg/Kg was used in combination with invivofectamine 3.0. Preparation of siRNA with the Invivofectamine was performed as recommended by the manufacturer. Mice were administered with a single i.v. dose of siMCJ/invivofectamine in 150 μl.

In data set [1] the test system is MCJ. The data set can be described thus: MCJ expression in liver in vivo by Western blot. Also noted: species or system mouse. As to the method: Analysis for MCJ expression in liver by Western blot analysis was performed as previously described (REF) using a specific anti-MCJ antibody. Expression of GAPDH was used as a control. Band intensities were quantified using the ImageJ software and normalized to the control (GAPDH).
as §1

Another data set concerns CoxIV. The data set can be described thus: CoxIV level in human MCF7 cells, Western blot (control protein). The data set is classed as cell-based. Particulars: MCF7 cells transfected with h-siMCJ 5 nM, harvested after 30 h; FIG. 10. As to the method:
(§2) A human siMCJ has been tested in a human MCF7 cell line in vitro. […] Transfection methods included transecting human MCF7 cells transfected with h-siMCJ (5 nM) and after 30 h cells were harvested and MCJ expression was examined by Western blot analysis using an anti-human MCJ antibody. CoxIV (mitochondrial protein) and GAPDH were also examined as controls.
(In western blotting, separated proteins are transferred to a membrane and probed.)

Data set [2] deals with MCJ. The data set can be described thus: MCJ knockdown in human MCF7 cells, Western blot. The data set is classed as cell-based. Particulars: MCF7 cells transfected with h-siMCJ 5 nM, harvested after 30 h; FIG. 10. As to the method: as §2
The conditions of data set [3]: cited from earlier work.

On to “siMCJ: double strand RNA oligos (see for example SEQ ID NO: 22, mouse siRNA sequence gcgagaggctagtcttatt), given i.v. with Invivofectamine 3.0 (GCGAGAGGCTAGTCTTATT; Invivofectamine 3.0 formulation, further chemistry not given here; listed as Mus musculus)”, for which, in the data set with wild-type hepatocytes, the “protection from toxic injury caused by acetaminophen” value is given as “protected wild-type hepatocytes from the development of toxic injury”. Further, the “areas of tissue damage in liver sections (H&E histology)” value in the data set with wild-type mice (siMCJ i.v. 20 h before acetaminophen 360 mg/Kg i.p., harvested 24 h after acetaminophen, FIG. 8B) is “almost not detected”. The “quantification of the damage area in the livers” value in the data set on wild-type mice (siMCJ i.v. 20 h before acetaminophen, n=5, p<0.05, FIG. 8C) is “protective effect”. Also, the “levels of ALT in serum” value in the data set on wild-type mice (siMCJ i.v. 24 h after acetaminophen 360 mg/Kg i.p., harvested 48 h after acetaminophen, p<0.01 vs control mice, FIG. 9B) is given as “drastically lower”. In the data set on MCJ [1] (24 h after single i.v. dose of siMCJ 1.7 mg/Kg with invivofectamine, wild-type mice, FIG. 7), the “levels of endogenous MCJ in the liver” value is “almost undetectable”. Besides, the “restoration of MCJ levels in liver” value with MCJ [1] (after 9 days of administration, single i.v. dose of siMCJ, FIG. 7) is on record as “not a full restoration of MCJ levels”. Further, the “levels of MCJ in the liver of APAP-mice” value in the data set on MCJ [1] (siMCJ i.v. 20 h before acetaminophen 360 mg/Kg i.p., harvested 24 h after acetaminophen, relative to APAP-mice without siMCJ, FIG. 8A) was “markedly reduced”. For the same molecule, the “levels of MCJ in the liver” value in the data set on MCJ [1] (siMCJ i.v. 24 h after acetaminophen 360 mg/Kg i.p., harvested 48 h after acetaminophen, FIG. 9A) is recorded as “almost undetectable”. For the same molecule, in the data set on MCJ [1] (single i.v. dose of siMCJ 1.7 mg/Kg with invivofectamine, FIG. 7), the “time for which levels of MCJ in liver remained very low” value is “at least 7 days”.
“h-siMCJ: human siRNA sequence gaagatttcaactectagat (as printed), double stranded RNA oligo (GAAGATTTCAACTCCTAGCTT; listed as DNA, chemistry not given here; listed as Homo sapiens)”: the “levels of CoxIV (another mitochondrial protein)” value in the data set with CoxIV was “not affecting the levels of CoxIV”. The MCJ protein expression result in the data set on MCJ [2] is “sufficient to knockdown MCJ protein expression”.
Take `CC(=O)N[C@@H](CS)C(=O)O` [NAC, N-acetylcysteine]: the “hepatoprotective effect when given after 8 h” value in data set [3] (more than 8 h after uptake of acetaminophen) was “minimal to known”. In addition, in data set [3] (patients with acute hepatic failure due to overdose of acetaminophen), the “time after uptake of acetaminophen within which administration has a hepatoprotective effect” value is not above 8 h.
